Assay results: ChEMBL document CHEMBL5696439 (Cancer Res, 2010)
Calls of active or inactive are those of the source. No cut-off for these calls is given here.

Columns and labels:
[1] = target: Tyrosine-protein kinase JAK1 (Homo sapiens) (UniProt P23458); experiment: Inhibition of recombinant human GST-tagged JAK1 (866-1154 residues) expressed in insect cells at 2 uM using Tyr 06 as substrate measured after 1 hr by Z'-LYTE assay relative to control; settings: Insect cell
MDA-MB-361 = experiment: Induction of apoptosis in human MDA-MB-361 cells assessed as induction in cell death at 10 nmol/L incubated for 48 hrs by FACS analysis relative to control; assay type: functional
[2] = target: Tyrosine-protein kinase ABL1 (Homo sapiens) (UniProt P00519); experiment: Inhibition of recombinant human full-length His-tagged ABL1 expressed in insect cells at 2 uM using Tyr 02 as substrate measured after 1 hr by Z'-LYTE assay relative to control; settings: Insect cell
[3] = target: Homeodomain-interacting protein kinase 1 (Homo sapiens) (UniProt Q86Z02); experiment: Inhibition of recombinant human GST-tagged HIPK1 (158-555 residues) expressed in insect cells at 2 uM using Ser/Thr 09 as substrate measured after 1 hr by Z'-LYTE assay relative to control; settings: Insect cell
Homeodomain-interacting protein kinase 1 (Homo sapiens), sequence (Q86Z02 whole entry, looked up, the tested form may be a part): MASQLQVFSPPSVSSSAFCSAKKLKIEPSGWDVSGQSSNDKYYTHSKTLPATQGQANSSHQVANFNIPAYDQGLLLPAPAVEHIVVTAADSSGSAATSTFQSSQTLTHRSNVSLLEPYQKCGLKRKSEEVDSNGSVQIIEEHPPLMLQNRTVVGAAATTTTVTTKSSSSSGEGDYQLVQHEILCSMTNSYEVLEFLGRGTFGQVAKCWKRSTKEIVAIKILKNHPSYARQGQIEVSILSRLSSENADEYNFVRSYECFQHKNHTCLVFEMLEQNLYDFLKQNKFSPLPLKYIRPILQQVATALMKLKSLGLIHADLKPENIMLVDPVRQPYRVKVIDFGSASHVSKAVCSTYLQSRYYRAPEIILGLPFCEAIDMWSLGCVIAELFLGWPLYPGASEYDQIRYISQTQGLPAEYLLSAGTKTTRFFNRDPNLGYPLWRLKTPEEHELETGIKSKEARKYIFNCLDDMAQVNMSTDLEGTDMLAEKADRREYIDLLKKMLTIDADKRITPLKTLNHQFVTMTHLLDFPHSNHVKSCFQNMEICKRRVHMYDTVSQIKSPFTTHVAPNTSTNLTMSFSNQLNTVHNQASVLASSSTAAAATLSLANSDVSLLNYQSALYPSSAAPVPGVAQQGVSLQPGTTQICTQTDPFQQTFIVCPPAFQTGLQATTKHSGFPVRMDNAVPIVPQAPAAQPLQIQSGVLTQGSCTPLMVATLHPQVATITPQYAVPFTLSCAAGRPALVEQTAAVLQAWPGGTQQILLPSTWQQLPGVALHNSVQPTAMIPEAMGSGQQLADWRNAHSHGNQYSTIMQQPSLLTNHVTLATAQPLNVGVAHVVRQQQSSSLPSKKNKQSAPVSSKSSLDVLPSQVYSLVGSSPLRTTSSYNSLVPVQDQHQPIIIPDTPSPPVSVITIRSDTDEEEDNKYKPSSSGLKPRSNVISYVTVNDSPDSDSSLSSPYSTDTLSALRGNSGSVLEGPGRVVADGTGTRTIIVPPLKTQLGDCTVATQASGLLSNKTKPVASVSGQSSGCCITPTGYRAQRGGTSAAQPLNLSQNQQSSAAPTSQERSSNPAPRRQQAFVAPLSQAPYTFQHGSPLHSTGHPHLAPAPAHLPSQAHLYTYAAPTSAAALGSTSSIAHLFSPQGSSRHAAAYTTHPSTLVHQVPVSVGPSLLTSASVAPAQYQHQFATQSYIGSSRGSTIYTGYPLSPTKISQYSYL

[4] = target: Ribosomal protein S6 kinase beta-1 (Homo sapiens) (UniProt P23443); experiment: Inhibition of recombinant human GST-tagged RPS6KB1 (1-421 residues) expressed in insect cells at 2 uM using Ser/Thr 07 as substrate measured after 1 hr by Z'-LYTE assay relative to control; settings: Insect cell
Ribosomal protein S6 kinase beta-1 (Homo sapiens), sequence (P23443 whole entry, looked up, the tested form may be a part): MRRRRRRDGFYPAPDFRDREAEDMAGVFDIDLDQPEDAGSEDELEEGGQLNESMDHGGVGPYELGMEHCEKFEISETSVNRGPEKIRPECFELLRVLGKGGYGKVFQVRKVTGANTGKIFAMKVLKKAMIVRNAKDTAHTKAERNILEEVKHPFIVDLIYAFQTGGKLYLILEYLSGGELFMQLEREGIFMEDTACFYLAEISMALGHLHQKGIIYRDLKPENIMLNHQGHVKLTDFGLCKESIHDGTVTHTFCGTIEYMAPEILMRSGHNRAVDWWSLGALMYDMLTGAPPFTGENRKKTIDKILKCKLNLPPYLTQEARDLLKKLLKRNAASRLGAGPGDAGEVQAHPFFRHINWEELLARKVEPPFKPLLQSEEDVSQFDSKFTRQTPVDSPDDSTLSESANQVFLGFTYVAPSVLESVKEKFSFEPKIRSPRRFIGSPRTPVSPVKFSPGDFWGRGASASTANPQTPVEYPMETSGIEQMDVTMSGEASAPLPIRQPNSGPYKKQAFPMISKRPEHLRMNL

[5] = target: Vascular endothelial growth factor receptor 3 (Homo sapiens) (UniProt P35916); experiment: Inhibition of recombinant human GST-tagged FLT4 (800-1297 residues) expressed in insect cells at 2 uM using Tyr 04 as substrate measured after 1 hr by Z'-LYTE assay relative to control; settings: Insect cell
[6] = target: Casein kinase I isoform epsilon (Homo sapiens) (UniProt P49674); experiment: Inhibition of recombinant human full-length His-tagged CSNK1E expressed in insect cells at 2 uM using Ser/Thr 11 as substrate measured after 1 hr by Z'-LYTE assay relative to control; settings: Insect cell
[7] = test system: Platelet-derived growth factor receptor alpha (Homo sapiens), P16234 [V561D]; experiment: Inhibition of recombinant human GST-tagged PDGFRA V561D mutant (550-1089 residues) expressed in insect cells at 2 uM using Tyr 04 as substrate measured after 1 hr by Z'-LYTE assay relative to control; settings: Insect cell
[8] = target: Serine/threonine-protein kinase TBK1 (Homo sapiens) (UniProt Q9UHD2); experiment: Inhibition of recombinant human full length GST-tagged TBK1 expressed in insect cells at 2 uM using Ser/Thr 05 as substrate measured after 1 hr by Z'-LYTE assay relative to control; settings: Insect cell
[9] = target: cAMP-dependent protein kinase catalytic subunit alpha (Homo sapiens) (UniProt P17612); experiment: Inhibition of recombinant human His-tagged PRKACA (1-351 residues) expressed in E.coli at 2 uM using Ser/Thr 01 as substrate measured after 1 hr by Z'-LYTE assay relative to control
[10] = target: Mast/stem cell growth factor receptor Kit (Homo sapiens) (UniProt P10721); experiment: Inhibition of recombinant human His-tagged KIT (544-976 residues) expressed in insect cells at 2 uM using […] as substrate measured after 1 hr by Z'-LYTE assay relative to control
Mast/stem cell growth factor receptor Kit (Homo sapiens), sequence (P10721 whole entry, the tested form may be a part, canonical isoform): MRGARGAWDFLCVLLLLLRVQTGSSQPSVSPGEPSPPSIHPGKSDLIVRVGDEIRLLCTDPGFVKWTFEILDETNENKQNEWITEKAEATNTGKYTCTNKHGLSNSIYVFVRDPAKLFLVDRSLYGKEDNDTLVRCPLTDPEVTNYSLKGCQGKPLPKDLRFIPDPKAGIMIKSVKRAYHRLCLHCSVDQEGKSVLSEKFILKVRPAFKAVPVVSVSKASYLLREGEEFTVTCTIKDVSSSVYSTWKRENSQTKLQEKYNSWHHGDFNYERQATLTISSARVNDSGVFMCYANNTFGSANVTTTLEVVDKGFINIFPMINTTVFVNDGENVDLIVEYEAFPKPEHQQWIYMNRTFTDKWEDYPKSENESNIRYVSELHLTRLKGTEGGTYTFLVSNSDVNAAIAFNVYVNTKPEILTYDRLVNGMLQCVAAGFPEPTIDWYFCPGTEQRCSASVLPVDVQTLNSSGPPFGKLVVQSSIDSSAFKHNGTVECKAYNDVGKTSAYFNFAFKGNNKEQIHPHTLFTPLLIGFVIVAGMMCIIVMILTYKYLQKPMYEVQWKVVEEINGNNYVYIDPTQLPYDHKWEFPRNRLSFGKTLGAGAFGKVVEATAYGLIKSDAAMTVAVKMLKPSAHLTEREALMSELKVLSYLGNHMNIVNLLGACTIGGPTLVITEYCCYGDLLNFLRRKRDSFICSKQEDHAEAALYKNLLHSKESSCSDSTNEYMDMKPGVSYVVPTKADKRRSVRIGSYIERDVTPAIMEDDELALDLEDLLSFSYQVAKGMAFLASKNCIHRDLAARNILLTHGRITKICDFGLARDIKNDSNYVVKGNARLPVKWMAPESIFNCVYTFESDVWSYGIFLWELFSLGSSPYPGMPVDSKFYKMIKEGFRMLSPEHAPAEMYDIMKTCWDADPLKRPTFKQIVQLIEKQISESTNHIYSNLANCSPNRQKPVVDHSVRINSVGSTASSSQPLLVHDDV

[11] = target: Casein kinase I isoform gamma-1 (Homo sapiens) (UniProt Q9HCP0); experiment: Inhibition of recombinant human full-length GST-tagged CSNK1G1 expressed in insect cells at 2 uM using Ser/Thr 05 as substrate measured after 1 hr by Z'-LYTE assay relative to control; settings: Insect cell
[12] = target: Tyrosine-protein kinase Fer (Homo sapiens) (UniProt P16591); experiment: Inhibition of recombinant human His-tagged FER (541-822 residues) expressed in baculovirus expression system at 2 uM using Tyr 05 as substrate measured after 1 hr by Z'-LYTE assay relative to control
[13] = target: Fibroblast growth factor receptor 2 (Homo sapiens) (UniProt P21802); experiment: Inhibition of recombinant human His-tagged FGFR2 (403-822 residues) expressed in baculovirus expression system at 2 uM using Tyr 04 as substrate measured after 1 hr by Z'-LYTE assay relative to control
Fibroblast growth factor receptor 2 (Homo sapiens), sequence (P21802 22-821 limits assumed): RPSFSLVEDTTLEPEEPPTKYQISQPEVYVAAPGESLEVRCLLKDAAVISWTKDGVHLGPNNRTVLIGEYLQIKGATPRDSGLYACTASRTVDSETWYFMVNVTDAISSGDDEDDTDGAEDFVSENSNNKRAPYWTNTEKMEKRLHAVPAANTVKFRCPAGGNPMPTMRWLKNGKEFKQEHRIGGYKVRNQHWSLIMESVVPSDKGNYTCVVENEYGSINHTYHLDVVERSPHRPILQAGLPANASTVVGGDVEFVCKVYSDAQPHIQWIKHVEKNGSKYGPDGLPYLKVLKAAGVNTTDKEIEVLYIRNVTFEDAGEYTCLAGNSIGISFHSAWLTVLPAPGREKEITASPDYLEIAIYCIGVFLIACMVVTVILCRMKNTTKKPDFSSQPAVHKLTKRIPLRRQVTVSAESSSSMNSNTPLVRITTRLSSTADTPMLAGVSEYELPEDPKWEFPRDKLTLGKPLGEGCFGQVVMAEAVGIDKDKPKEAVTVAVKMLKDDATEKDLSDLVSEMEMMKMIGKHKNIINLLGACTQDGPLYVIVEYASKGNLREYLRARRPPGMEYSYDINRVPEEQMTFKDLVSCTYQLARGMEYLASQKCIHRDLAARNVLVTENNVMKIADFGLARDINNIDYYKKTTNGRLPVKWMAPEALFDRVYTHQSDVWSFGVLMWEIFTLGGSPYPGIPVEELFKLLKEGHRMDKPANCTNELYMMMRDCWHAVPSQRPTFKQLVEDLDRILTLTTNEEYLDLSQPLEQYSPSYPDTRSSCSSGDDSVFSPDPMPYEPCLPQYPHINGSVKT

[14] = test system: Platelet-derived growth factor receptor alpha (Homo sapiens), P16234 [D842V]; experiment: Inhibition of recombinant human GST-tagged PDGFRA D842V mutant (550-1089 residues) expressed in baculovirus expression system at 2 uM using Tyr 04 as substrate measured after 1 hr by Z'-LYTE assay relative to control
[15] = target: Tyrosine-protein kinase FRK (Homo sapiens) (UniProt P42685); experiment: Inhibition of recombinant human full-length GST-tagged FRK expressed in baculovirus expression system at 2 uM using Tyr 01 as substrate measured after 1 hr by Z'-LYTE assay relative to control
Tyrosine-protein kinase FRK (Homo sapiens), sequence (P42685 whole entry): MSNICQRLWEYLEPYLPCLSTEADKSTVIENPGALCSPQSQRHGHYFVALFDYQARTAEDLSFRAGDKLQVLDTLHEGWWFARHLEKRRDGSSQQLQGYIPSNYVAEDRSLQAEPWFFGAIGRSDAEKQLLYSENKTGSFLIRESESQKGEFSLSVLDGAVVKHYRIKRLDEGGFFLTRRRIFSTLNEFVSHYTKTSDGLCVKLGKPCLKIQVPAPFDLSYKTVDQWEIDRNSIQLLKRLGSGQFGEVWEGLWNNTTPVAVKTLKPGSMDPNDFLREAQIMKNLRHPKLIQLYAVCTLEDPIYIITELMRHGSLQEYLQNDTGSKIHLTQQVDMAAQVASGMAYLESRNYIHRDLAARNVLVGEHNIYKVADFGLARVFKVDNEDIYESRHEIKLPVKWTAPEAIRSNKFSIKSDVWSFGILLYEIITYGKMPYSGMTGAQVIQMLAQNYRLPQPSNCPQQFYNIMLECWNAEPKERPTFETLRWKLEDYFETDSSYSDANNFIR

BT-474 = experiment: Induction of apoptosis in human BT-474 cells assessed as increase in PARP cleavage at 0.3 to 3 micromol/L incubated for 48 hrs by Western blot analysis; assay type: functional, cell-based; settings: dose 0.3-3 µmol/L
[16] = target: Rho-associated protein kinase 1 (Homo sapiens) (UniProt Q13464); experiment: Inhibition of recombinant human GST-tagged ROCK1 (1-535 residues) expressed in insect cells at 2 uM using Ser/Thr 07 as substrate measured after 1 hr by Z'-LYTE assay relative to control; settings: Insect cell
[17] = target: Tyrosine-protein kinase Fyn (Homo sapiens) (UniProt P06241); experiment: Inhibition of recombinant human full-length His-tagged FYN expressed in insect cells at 2 uM using Tyr 02 as substrate measured after 1 hr by Z'-LYTE assay relative to control; settings: Insect cell
[18] = target: Tyrosine-protein kinase HCK (Homo sapiens) (UniProt P08631); experiment: Inhibition of recombinant human full-length GST-tagged HCK expressed in insect cells at 2 uM using Tyr 02 as substrate measured after 1 hr by Z'-LYTE assay relative to control; settings: Insect cell
Tyrosine-protein kinase HCK (Homo sapiens), sequence (P08631 2-526 limits assumed): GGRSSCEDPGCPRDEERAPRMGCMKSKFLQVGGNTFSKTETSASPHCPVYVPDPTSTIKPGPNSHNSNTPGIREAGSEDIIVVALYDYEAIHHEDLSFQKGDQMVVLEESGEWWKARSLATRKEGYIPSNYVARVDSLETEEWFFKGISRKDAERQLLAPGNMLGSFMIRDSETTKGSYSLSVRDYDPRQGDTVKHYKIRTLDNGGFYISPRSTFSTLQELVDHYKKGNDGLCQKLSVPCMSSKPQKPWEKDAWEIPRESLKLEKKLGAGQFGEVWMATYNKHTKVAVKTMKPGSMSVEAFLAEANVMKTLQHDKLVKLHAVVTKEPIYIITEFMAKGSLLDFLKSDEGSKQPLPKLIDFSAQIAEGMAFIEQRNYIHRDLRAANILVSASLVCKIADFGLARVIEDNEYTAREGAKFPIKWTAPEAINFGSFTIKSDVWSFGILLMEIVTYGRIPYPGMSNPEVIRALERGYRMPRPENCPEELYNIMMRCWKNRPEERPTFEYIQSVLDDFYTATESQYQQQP

[19] = target: Mitogen-activated protein kinase 14 (Homo sapiens) (UniProt Q16539); experiment: Inhibition of recombinant human full length GST-tagged MAPK14 expressed in E. coli at 2 uM using Ser/Thr 04 as substrate measured after 1 hr by Z'-LYTE assay relative to control
Mitogen-activated protein kinase 14 (Homo sapiens), sequence (Q16539 whole entry): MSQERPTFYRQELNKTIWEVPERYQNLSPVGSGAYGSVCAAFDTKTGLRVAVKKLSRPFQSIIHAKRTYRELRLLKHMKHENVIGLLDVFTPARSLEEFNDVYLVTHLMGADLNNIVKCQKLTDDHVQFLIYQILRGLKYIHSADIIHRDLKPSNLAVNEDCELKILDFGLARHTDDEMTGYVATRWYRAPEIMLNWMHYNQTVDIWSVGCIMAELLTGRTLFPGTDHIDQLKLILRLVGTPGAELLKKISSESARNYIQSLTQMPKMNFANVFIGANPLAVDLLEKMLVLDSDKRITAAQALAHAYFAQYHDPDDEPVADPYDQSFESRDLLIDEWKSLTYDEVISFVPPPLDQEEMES

[20] = target: Serine/threonine-protein kinase B-raf (Homo sapiens) (UniProt P15056); experiment: Inhibition of recombinant human full-length GST tagged BRAF expressed in insect cells at 2 uM using Ser/Thr 03 as substrate measured after 1 hr by Z'-LYTE assay relative to control; settings: Insect cell
[21] = target: Serine/threonine-protein kinase MARK2 (Homo sapiens) (UniProt Q7KZI7); experiment: Inhibition of recombinant human full length GST-tagged MARK2 expressed in insect cells at 2 uM using Ser/Thr 21 as substrate measured after 1 hr by Z'-LYTE assay relative to control; settings: Insect cell
HEK293 = experiment: Antiproliferative activity against HEK293 cells assessed as reduction in polysomes at 0.5 micromol/L incubated for 16 hrs; assay type: functional, Homo sapiens; settings: dose 0.5 µmol/L

SMILES: CNC(=O)Nc1ccc(-c2nc(N3CC4CCC(C3)O4)c3cnn(C4CCC5(CC4)OCCO5)c3n2)cc1
- inhibition [1]: 5%
- Activity (MDA-MB-361): 6.2%
- inhibition [2]: 4%
- inhibition [3]: 1%
- inhibition [4]: 2%
- inhibition [5]: 4%
- inhibition [6]: 4%
- inhibition [7]: 3%
- inhibition [8]: 2%
- inhibition [9]: -3%
- inhibition [10]: 10%
- inhibition [11]: -2%
- inhibition [12]: 5%
- inhibition [13]: 4%
- inhibition [14]: 4%
- inhibition [15]: 3%
- Activity (BT-474): Active
- inhibition [16]: -8%
- inhibition [17]: 2%
- inhibition [18]: 5%
- inhibition [19]: 11%
- inhibition [20]: 6%
- inhibition [21]: 12%
- Activity (HEK293): 0.58
